Reference: patent publication US20090259167A1, “METHODS AND COMPOSITIONS FOR DOSE-DEPENDENT PHOTODYNAMIC THERAPY OF DISORDERS” (THE GENERAL HOSPITAL CORPORATION, priority 2008, published 2009)
“Also recorded” adds a separate entry of the source.

Columns and labels:
[1] = pH and stability of ALA solutions; assay type: physicochemical; settings: unbuffered
Experimental: (§1) 5-Aminolevulinic acid hydrochloride from Biosynth International Inc. (Naperville, Ill., USA) was diluted in normal saline (0.9% Sodium Chloride, Hospira, Inc., Illinois, USA) into different concentrations. ALA solutions were titrated in halves from 1.000% to 0.0005%. Osmolarity was not corrected. ALA solution pH varied with concentration from acidic to neutral (1.000%≈pH 1; 0.500%≈pH 3; 0.250 to 0.008%≈pH 5; 0.004 to 0.0005%≈pH 7). Normal saline was used as a control (pH=7). […] In this study, ALA solutions were not buffered because buffering can induce a delay in PpIX formation (Bech et al. 1997). Unbuffered solutions were prepared immediately before intradermal injection. A volume of 0.05-cc/cm^2 skin area was injected at a depth of 2 to 4 mm, using a special 4 mm-long 30 gauge needle (TSK STEiJECT, Toshigi-ken, Japan). The beveled outlet of this needle covers the distal 1 mm near its tip.

[2] = tested on: skin; test: Clinical examination of inflammatory response to ALA-PDT (635 nm red light); assay type: in vivo, Yorkshire swine
Source text: (§2) Three female domestic Yorkshire swine weighing 30 to 50 kg were used in the study, which was approved by the MGH Institutional Subcommittee for Research Animal Care. Porcine and human skin have similar histology and physiology, with notable differences. Pigs have smaller sebaceous glands and a thicker dermis. However their thick stratum corneum, lack of fur and metabolism of topical or injected ALA are similar to humans (Meyer 1996), (de Blois, Thissen et al. 2001).
as §1
(§3) Each animal's flanks were cleansed, clipped of hair, cleansed and rinsed again, dried with a towel, mapped and divided into 4 cm×7 cm rectangular areas for the test spots. Each test area received an injection of a given ALA concentration, with appropriate control sites, which received either no treatments, ALA alone, or light exposure alone. After the ALA injections, the skin surface was wiped clean again. Three hours after ALA administration, each test area was used for repeated measurements of (1) digital fluorescence photography to document the gross distribution of porphyrin synthesis; and (2) 8-mm skin biopsies obtained from at least 2 sites for each condition prior to light exposure, for evaluation of porphyrin distribution by fluorescence microscopy. After the 3-hour-incubation skin biopsies, red light exposures were performed using a 635 nm LED array (Omnilux, Photo Therapeutics, Inc, Cheshire, UK), delivered at 100 mW/cm^2 irradiance. Biopsies were taken from the control sites at the same times as from test sites, to control for the unlikely possibility that the small amount of ALA injected would cause a systemic level sufficient to stimulate remote synthesis of porphyrins. Measurements and biopsies were repeated after 24 hours, prior to euthanasia.
Clinical examination and grading of cutaneous responses were performed before, during and 1 hour after the end of the last red light exposure. This is sufficient time for an acute inflammatory response to develop. The following day, before euthanasia, final clinical evaluation was performed. Inflammatory response was graded from 0 to 3 for each site, where 0 represents no reaction; 1, mild (any redness or edema); 2, moderate (prominent redness and/or edema) and 3, severe reaction (signs of necrosis, blistering, purpura).

[3] = tested on: skin structures; test: Histopathology (H&E) of skin structures 24 hours after ALA-PDT; assay type: in vivo, Yorkshire swine
Source text: as §2, §1, §3
(§4) From each experimental skin area, a series 8 mm punch biopsies were taken and immediately split vertically in half with a razor blade. For each biopsy, half was prepared as a fresh-frozen specimen to localize the PpIX accumulation by fluorescence microscopy. The other half was processed for routine hematoxylin-eosin (H&E) staining. At baseline (B0), after 3 hours of incubation (B1), and after 24 hours (B2) a biopsy was performed in each area. Biopsies for fluorescence microscopy were also taken from sites receiving light exposure, just after the light was administered. Frozen sections were cut into 15 μm thick samples and observed using fluorescence microscopy Zeiss Axiophot, Carls Zeiss MicroImaging GmbH, Gottinger, Germany at 10× magnification; samples were also imaged by confocal microscopy (True Confocal Scanner—Leica TCSNT, Leica Mikroscopie und Systeme GmbH, Heidelberg, Germany) at 40× magnification. Routine H&E histology was performed to analyze PDT effect within the skin structures. Biopsy sites were separated from each other by at least 1 cm. […]

[4] = depending on the pH and the concentration of the solution; cited from earlier work
[5] = tested on: porphyrin accumulation in cutaneous structures; test: Fluorescence microscopy of fresh-frozen skin biopsies for porphyrin (PpIX) distribution; assay type: in vivo, Yorkshire swine
Source text: as §2, §1, §3, §4

[6] = tested on: porphyrin accumulation in skin; test: Digital fluorescence gross photography of porphyrin accumulation after intradermal ALA; assay type: in vivo, Yorkshire swine
Source text: as §2, §1
For each concentration, 12 repetitions were performed for statistical validation. One centimeter separated each site of application from others at the same concentration. After ALA administration, the skin was occluded with plastic sheeting (Saran wrap) and covered with aluminum foil, to avoid light exposure during a 3-hour period for ALA metabolism.
as §3
Fluorescence photography was performed using a 420 nm bandwidth excitation filter, and >600 nm long pass emission filter mounted on a digital camera (Nikon D70, Nikon Corporation, Tokyo, Japan) with fixed-focus and fixed-field with 10 cm field of view. A fluorescent tape (Small Flags—Pink, Redi-Tag Corporation, Cypress, Calif., USA) was attached to the fixed-field area to compare the fluorescence produced from the skin. Fluorescence photography was performed at baseline, after 3 hours of incubation, immediately after red light exposure, and 24 hours after the application of the drug for each ALA application and control test sites.
Every gross fluorescent photograph was analyzed using the WCIF—Image J 1.37c software—Wayne Rasband National Institutes of Health, USA. In this software, pixel analysis is transformed into numeric values. […]

[7] = 0.5% injected ALA-PDT, 24 hours

**Q.** Which “ALA solution pH” value ([1]; 0.004 to 0.0005% ALA in normal saline) does the source give for `Cl.NCC(=O)CCC(=O)O` [ALA, 5-Aminolevulinic acid hydrochloride] here?
**A.** ~7

**Q.** What about the “ALA solution pH” value ([1]; 0.250 to 0.008% ALA in normal saline) of the same compound?
**A.** ~5

**Q.** What about the “ALA solution pH” value ([1]; 0.500% ALA in normal saline) of the same compound?
**A.** ~3

**Q.** And the “ALA solution pH” value ([1]; 1.000% ALA in normal saline)?
**A.** ~1

**Q.** What about the “lowest injected ALA concentration with clinical reaction (mild erythema)” value ([2]; 24 hours after PDT) of the same compound?
**A.** 0.016%

**Q.** And the Nikolski sign ([2]; all sites)?
**A.** negative

**Q.** What about the “clinical response after light exposure” value ([2]; injected ALA 0.0005% (lowest concentration)) of the same compound?
**A.** no significant clinical residuum

**Q.** And the “clinical response after PDT” value ([2]; injected ALA 0.25%-1.00%, necrosis generally after 24 hours)?
**A.** extensive purpura with skin necrosis

**Q.** And the gross skin reaction ([2]; injected ALA and light exposure, after 24 hours)?
**A.** much more uniform gross skin reaction

**Q.** What about the “clinical response during red light irradiation” value ([2]; injected ALA from 0.016% to 1.0%) of the same compound?
**A.** intense vasospasm

**Q.** And the “clinical response after light exposure” value ([2]; injected ALA less or equal to 0.016%, light 3 hours after injection)?
**A.** only erythematous macules near each injection puncture site

**Q.** What about the “reaction to ALA injection before light exposure” value ([2]; intradermal injection, 3-hour incubation) of the same compound?
**A.** mild transient “bleb” papule

**Q.** And the skin response ([2]; topical 20% ALA and light exposure, after 24 hours)?
**A.** non-uniform skin response, with much greater inflammation around hair follicles

**Q.** What about the fat septae damage ([3]; 0.002% injected ALA-PDT) of the same compound?
**A.** Massive fat septae necrosis

**Q.** And the “damage to hair follicle, adnexal glands and fat” value ([3]; 0.5% injected ALA-PDT)?
**A.** Non-selective destruction

**Q.** What about the epidermis changes [3, 7] of the same compound?
**A.** no relevant changes

**Q.** And the superficial vessel findings [3, 7]?
**A.** superficial vessel inflammation with blood stagnation

**Q.** And the eccrine gland damage ([3]; all ALA concentrations, more so 1% to 0.06%)?
**A.** Massive eccrine gland necrosis

**Q.** What about the fat damage ([3]; all injected ALA concentrations) of the same compound?
**A.** observed with all concentrations

**Q.** What about the epidermis reaction ([3]; all samples, 24 hours after PDT) of the same compound?
**A.** little or no reaction

**Q.** And the “vascular destruction in deep vessels of the fat septae” value ([3]; injected ALA 0.0005% (most diluted))?
**A.** maximal vascular destruction

**Q.** And the fat damage intensity ([3]; injected ALA 0.0005-0.016%)?
**A.** more intense

**Q.** What about the “fat effect at very low concentrations” value ([3]; injected ALA 0.016 to 0.0005% (≦0.016%), 2-4 mm deep, hydrochloride) of the same compound?
**A.** localized fat necrosis without clinical evidence of inflammation; also recorded: targeted fat and deep vessels without clinical inflammation

**Q.** And the superficial fat inflammation ([3]; injected ALA 0.06%)?
**A.** mild inflammation

**Q.** What about the “eccrine gland selectivity of damage” value ([3]; injected ALA 0.06%, hydrochloride) of the same compound?
**A.** selective destruction of some eccrine glands; also recorded: Selective eccrine gland damage; also recorded: selectively targeted eccrine glands; also recorded: Selective reaction of eccrine glands

**Q.** What about the “vascular findings in superficial and deep vessels” value ([3]; injected ALA 0.25-1.00%, 24 hours after PDT) of the same compound?
**A.** extensive perivascular and vascular mixed inflammatory cell infiltrates

**Q.** And the “vascular PDT reaction” value ([3]; injected ALA ≧0.25% with high fluence red light)?
**A.** potent vascular PDT reaction

**Q.** And the apocrine gland damage ([3]; injected ALA-PDT)?
**A.** signs of some preferential damage

**Q.** And the perifollicular inflammation ([3]; mainly injected ALA 1%-0.016%)?
**A.** mild perifollicular inflammation

**Q.** What about the “stability of aqueous solutions” value [4] of the same compound?
**A.** unstable over long periods

**Q.** What about the “lowest injected ALA concentration inducing porphyrin accumulation” value ([5]; down to and including) of the same compound?
**A.** 0.0005%

**Q.** What about the “injected ALA concentration at which epithelial skin structures (hair follicles, sebaceous glands, epidermis) showed fluorescence” value ([5]; in vivo) of the same compound?
**A.** ≥ 0.25%

**Q.** What about the subcutaneous fat fluorescence ([5]; injected ALA 0.0005%) of the same compound?
**A.** present

**Q.** What about the vessel fluorescence ([5]; injected ALA 0.50%) of the same compound?
**A.** Some vessels also fluoresced

**Q.** And the epidermal fluorescence ([5]; injected ALA 1.0% and 0.5%, prior to light)?
**A.** Full thickness epidermal fluorescence

**Q.** What about the “fluorescence of superficial and deep hair follicles” value ([5]; injected ALA 1% to 0.03%) of the same compound?
**A.** mostly present

**Q.** And the epidermal fluorescence ([5]; injected ALA below 0.06%)?
**A.** negative

**Q.** And the stratum corneum fluorescence ([5]; injected ALA below 0.06%)?
**A.** positive fluorescence

**Q.** And the “localisation of porphyrin fluorescence” value ([5]; injected ALA ≦0.002%, 2-4 mm deep)?
**A.** limited to the area where the drug was injected

**Q.** What about the “eccrine gland porphyrin fluorescence” value ([5]; injected ALA ≧0.03%) of the same compound?
**A.** strong porphyrin fluorescence

**Q.** What about the superficial fat fluorescence ([5]; injected ALA, all concentrations tested, fading with dilution) of the same compound?
**A.** strong fluorescence

**Q.** What about the “lowest ALA concentration with sebaceous gland fluorescence” value ([5]; injected, prior to light) of the same compound?
**A.** 0.50%

**Q.** What about the “lowest ALA concentration with positive eccrine gland fluorescence” value ([5]; injected, less intense but still positive) of the same compound?
**A.** 0.005%

**Q.** And the “porphyrin accumulation by gross fluorescence” value ([6]; 2-4 mm deep injected ALA lower than 0.0005%)?
**A.** low but detectable level of porphyrin accumulation

**Q.** What about the “lowest injected ALA concentration with positive fluorescence in photographs” value ([6]; 3 hours after intradermal administration, solutions 1.0% to 0.0005%) of the same compound?
**A.** 0.004%

**Q.** And the “lowest injected ALA concentration with statistically significantly increased fluorescence vs uninjected control sites (pixel value analysis)” value ([6]; 3 hours incubation)?
**A.** 0.004%

**Q.** And the “fluorescence compared to control and light only sites” value ([6]; ALA less than or equal to 0.002%, p≦2×10^−5)?
**A.** significant fluorescence

**Q.** What about the “fluorescence immediately after red light PDT” value ([6]; all sites, 635 nm) of the same compound?
**A.** no fluorescence

**Q.** What about the “porphyrin accumulation by gross fluorescence” value ([6]; injected ALA greater than 0.002%) of the same compound?
**A.** dose-dependent porphyrin accumulation
